The source of these data is patent US20210262029A1, “TREATMENT OF KCNQ2 AND KCNQ3 GAIN OF FUNCTION-ASSOCIATED DISORDERS” (The Trustees of Columbia University in the City of New York, priority 2018, published 2021).

The target of test [1] is KCNQ3 (Homo sapiens, UniProt O43525). The note with it: homomeric KCNQ3 wild type, CHO cells. An excerpt:
(§1) Variants were introduced in KCNQ3 human cDNA cloned into pcDNA3.1 by QuikChange site-directed mutagenesis (Agilent Technologies, Milan, Italy), as previously described.^12 Channel subunits were expressed in Chinese hamster ovary (CHO) cells by transient transfection using Lipofectamine 2000 (Invitrogen, Carlsbad, Calif.) according to the manufacturer's protocol.^17 A plasmid encoding enhanced green fluorescent protein (Clontech Laboratories, Mountain View, Calif.) was used as a transfection marker; total cDNA in the transfection mixture was kept constant at 4 μg.
(§2) Currents were recorded under whole-cell patch-clamp at room temperature (20-22° C.) 1 to 2 days after transfection as reported.^12 Current densities (expressed in pA/pF) were calculated as peak K^+ currents at 0 mV divided by cell capacitance. To generate conductance-voltage curves, the cells were held at −80 mV, then depolarized for 1.5 seconds from ˜120 to +20 mV in 10 mV increments, followed by an isopotential pulse at 0 mV of 300-millisecond duration. The current values recorded at the beginning of the 0 mV pulse were measured, normalized, and expressed as a function of the preceding voltages. The data were then fit to a Boltzmann distribution of the following form: y=max/[1+exp(V½−V)/k], where V is the test potential, V½ the half-activation potential, and k the slope factor.

Test [2] concerns the target KCNQ3 R1Q (Homo sapiens, UniProt O43525, R227Q). The note with it: 30 mM TEA; homomeric KCNQ3 R1Q (R227Q); CHO cells.
Excerpt: as §1, §2

Test [3] addresses KCNQ3 R2C (Homo sapiens, UniProt O43525, R230C). The following applies: 30 mM TEA; homomeric KCNQ3 R2C (R230C); CHO cells.
Excerpt: as §1, §2

In test [4] the target is KCNQ3 R2H (Homo sapiens, UniProt O43525, R230H). The note with it: 30 mM TEA; homomeric KCNQ3 R2H (R230H); CHO cells.
Chain of KCNQ3 R2H (O43525 whole entry R230H): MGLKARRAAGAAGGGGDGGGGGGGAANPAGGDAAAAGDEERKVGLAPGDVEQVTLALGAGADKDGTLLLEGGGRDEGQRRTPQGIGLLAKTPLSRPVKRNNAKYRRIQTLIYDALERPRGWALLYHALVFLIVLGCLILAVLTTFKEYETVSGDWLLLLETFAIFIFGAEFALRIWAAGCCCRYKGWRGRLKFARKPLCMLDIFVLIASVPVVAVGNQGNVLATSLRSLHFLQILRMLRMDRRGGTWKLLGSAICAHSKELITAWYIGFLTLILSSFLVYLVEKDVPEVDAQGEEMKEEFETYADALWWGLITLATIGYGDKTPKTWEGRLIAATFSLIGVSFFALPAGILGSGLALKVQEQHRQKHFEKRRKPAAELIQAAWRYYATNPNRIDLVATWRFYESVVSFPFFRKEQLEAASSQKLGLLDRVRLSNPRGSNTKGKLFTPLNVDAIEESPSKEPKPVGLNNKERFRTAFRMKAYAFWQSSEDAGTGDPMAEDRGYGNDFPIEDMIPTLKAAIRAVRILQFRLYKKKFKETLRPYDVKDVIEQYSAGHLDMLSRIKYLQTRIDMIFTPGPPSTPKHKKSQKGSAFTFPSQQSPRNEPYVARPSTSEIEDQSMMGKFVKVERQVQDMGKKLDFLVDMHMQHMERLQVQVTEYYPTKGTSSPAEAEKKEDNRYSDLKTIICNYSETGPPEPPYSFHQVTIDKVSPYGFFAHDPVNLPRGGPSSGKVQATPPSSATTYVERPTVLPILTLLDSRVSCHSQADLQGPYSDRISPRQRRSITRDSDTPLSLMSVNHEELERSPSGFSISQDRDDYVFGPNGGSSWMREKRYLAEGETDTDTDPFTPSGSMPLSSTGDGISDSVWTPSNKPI
Excerpt: as §1, §2

Test [5] has as its target KCNQ3 R2S (Homo sapiens, UniProt O43525, R230S). The note with it: 30 mM TEA; homomeric KCNQ3 R2S (R230S); CHO cells.
Excerpt: as §1, §2

Test [6] deals with KCNQ2 + KCNQ3 (Homo sapiens, UniProt O43525+O43526). The note with it: KCNQ2 + KCNQ3 1:1, CHO cells.
Chain of KCNQ2 + KCNQ3 (O43526 1-844 isoform O43526-3): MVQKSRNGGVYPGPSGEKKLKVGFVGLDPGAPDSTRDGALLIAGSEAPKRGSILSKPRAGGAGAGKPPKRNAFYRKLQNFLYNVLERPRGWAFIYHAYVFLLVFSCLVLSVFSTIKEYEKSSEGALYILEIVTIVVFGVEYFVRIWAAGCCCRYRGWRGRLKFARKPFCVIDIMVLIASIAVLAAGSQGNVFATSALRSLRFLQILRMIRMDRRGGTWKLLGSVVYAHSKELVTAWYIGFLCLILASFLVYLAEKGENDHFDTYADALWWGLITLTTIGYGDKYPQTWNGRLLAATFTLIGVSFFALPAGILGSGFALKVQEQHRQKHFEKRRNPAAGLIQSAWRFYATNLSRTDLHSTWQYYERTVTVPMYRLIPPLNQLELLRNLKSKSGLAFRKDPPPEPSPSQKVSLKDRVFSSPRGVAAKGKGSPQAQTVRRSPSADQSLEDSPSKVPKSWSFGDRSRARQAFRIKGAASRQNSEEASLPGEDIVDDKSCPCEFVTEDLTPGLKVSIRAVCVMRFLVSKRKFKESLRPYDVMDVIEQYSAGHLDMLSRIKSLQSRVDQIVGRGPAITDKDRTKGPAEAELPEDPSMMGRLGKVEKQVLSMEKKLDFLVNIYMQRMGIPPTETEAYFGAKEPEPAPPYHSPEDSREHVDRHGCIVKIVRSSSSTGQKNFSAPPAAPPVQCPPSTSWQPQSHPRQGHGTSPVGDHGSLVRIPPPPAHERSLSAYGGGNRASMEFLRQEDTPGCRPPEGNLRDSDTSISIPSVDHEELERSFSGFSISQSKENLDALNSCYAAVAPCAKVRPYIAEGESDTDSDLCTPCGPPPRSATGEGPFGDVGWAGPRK
Chain of KCNQ2 + KCNQ3 (O43525 whole entry): as the sequence (O43525 whole entry R230H) above, with H230R counted along it
Excerpt: (§3) To mimic the genetic condition of patients, who carry a single mutant allele, and considering that IKM in adult neurons is mainly formed by tetrameric co-assembly of KCNQ2 and KCNQ3 subunits, we transfected CHO cells with KCNQ2 and KCNQ3 cDNAs in a 1:1 ratio (to mimic the genetic balance of normal individuals), and KCNQ2+KCNQ3+mutant KCNQ3 1:0.5:0.5 ratio (to mimic the genetic balance of affected individuals).
as §1, §2

In test [7] the test system is KCNQ2 + KCNQ3 + KCNQ3 R1Q. The note with it: KCNQ2 + KCNQ3 + KCNQ3 R1Q 1:0.5:0.5, CHO cells.
Excerpt: as §3, §1, §2

Test [8] concerns KCNQ2 + KCNQ3 + KCNQ3 R2C. The following applies: KCNQ2 + KCNQ3 + KCNQ3 R2C 1:0.5:0.5, CHO cells.
Excerpt: as §3, §1, §2

Test [9] has as its system KCNQ2 + KCNQ3 + KCNQ3 R2H. The note with it: KCNQ2 + KCNQ3 + KCNQ3 R2H 1:0.5:0.5, CHO cells.
Excerpt: as §3, §1, §2

Test [10] concerns KCNQ2 + KCNQ3 + KCNQ3 R2S. The following applies: KCNQ2 + KCNQ3 + KCNQ3 R2S 1:0.5:0.5, CHO cells.
Excerpt: as §3, §1, §2

Molecules are shown by their SMILES.

Chain of KCNQ3 (O43525 whole entry): as the sequence (O43525 whole entry R230H) above, with H230R counted along it
Chain of KCNQ3 R2C (O43525 whole entry R230C): as the sequence (O43525 whole entry R230H) above, with H230C counted along it
Chain of KCNQ3 R1Q (O43525 whole entry R227Q): as the sequence (O43525 whole entry R230H) above, with R227Q, H230R counted along it
Chain of KCNQ3 R2S (O43525 whole entry R230S): as the sequence (O43525 whole entry R230H) above, with H230S counted along it

Regarding `CC[N+](CC)(CC)CC` [TEA, tetraethylammonium], the “Blockade by TEA, % 0.3 mM” value in test [1] (0.3 mM TEA) was found to be 6.4 ± 1.8%; in test [6] (0.3 mM TEA) it was 15.6 ± 3.1%; in [7] (0.3 mM TEA), 19.3 ± 2.0%; in [8] (0.3 mM TEA) it was 14.0 ± 6.2%; in [9] (0.3 mM TEA), 20.8 ± 3.1%; in test [10] (0.3 mM TEA), 12.9 ± 2.3%. Moreover, the “Blockade by TEA, % 3 mM” value in [1] (3 mM TEA) is 13.0 ± 3.4%; in [6] (3 mM TEA), 50.5 ± 3.1%; in [7] (3 mM TEA), 44.1 ± 4.3%; in test [8] (3 mM TEA), 47.1 ± 9.9%; in test [9] (3 mM TEA), 47.4 ± 2.5%; in test [10] (3 mM TEA) it was 43.6 ± 8.2%. The “Blockade by TEA, % 30 mM” value is listed as 61.7 ± 5.7% in test [1] (30 mM TEA); 61.1 ± 6.8% in [2]; 58.6 ± 13% in [3]; 70.9 ± 7.3% in test [4]; 66.1 ± 6.1% in test [5]; 78.8 ± 5.6% in test [6] (30 mM TEA). Further, the “Blockade by TEA, % 30 mM” value in [7] (30 mM TEA) worked out at 85.3 ± 2.1%; in [8] (30 mM TEA) it was 77.0 ± 7.3%; in test [9] (30 mM TEA), 78.8 ± 3.2%; in test [10] (30 mM TEA) it was 80.1 ± 6.5%.
